From patent US6465491B2, “6-phenylpyridyl-2-amine derivatives” (Pfizer Inc., priority 1996, dated 2002)
Structures can show the parent of a compound that is named as a salt.

Structure (SMILES) | melting point
Nc1cccc(-c2ccc(CCN3CCN(C(=O)COc4ccccc4)CC3)cc2)n1 | 127 to 130 °C
Nc1cccc(-c2ccc(CCN3CCN(C(=O)Cc4ccccc4)CC3)cc2)n1 | 135 to 137 °C
Nc1cccc(-c2ccc(CCN3CCN(C(=O)Oc4ccccc4)CC3)cc2)n1 | 102 to 104 °C
Nc1cccc(-c2ccc(CCN3CCN(C(=O)Cc4ccc(F)cc4)CC3)cc2)n1 | 143 to 145 °C
Cl.Nc1cccc(-c2ccc(CCN3CC4C(C3)C4NCCCc3ccccc3)cc2)n1 (stereo not drawn) | 160 to 163 °C
CC(=O)N(CCc1ccc(-c2cccc(N)n2)cc1)C1CCN(Cc2ccccc2)CC1 (as salt: hydrochloride) | 60 to 70 °C (dec.)
Nc1cccc(-c2ccc(CN3CC4C(N)C4C3)cc2)n1 (stereo not drawn) (as salt: hydrochloride) | 189 to 192 °C (dec.)
CN1CC2CC1CN2CCc1ccc(-c2cccc(N)n2)cc1 (stereo not drawn) (as salt: hydrochloride) | 132 °C (dec.)
Nc1cccc(-c2ccc(CCN3CCN(C(=O)Cc4ccc(Cl)cc4)CC3)cc2)n1 (as salt: hydrochloride) | 205 °C (dec.)
Nc1cccc(-c2ccc(CCN3CC4CCC(C3)C4N)cc2)n1 (stereo not drawn) (as salt: hydrochloride) | 235 °C (dec.)
Nc1cccc(-c2ccc(CCN3C4CCC3CC(N)C4)cc2)n1 (stereo not drawn) (as salt: hydrochloride) | > 300 °C
Nc1cccc(-c2ccc(CCNC3CC4CCC(C3)N4Cc3ccccc3)cc2)n1 (stereo not drawn) (as salt: hydrochloride) | 260 °C (dec.)
Nc1cccc(-c2ccc(CCNC3CC4CCC(C3)N4)cc2)n1 (stereo not drawn) (as salt: hydrochloride) | 170 °C (dec.)
Nc1cccc(-c2ccc(CCNC3CC4CCC(C3)N4C(=O)Cc3ccc(F)cc3)cc2)n1 (stereo not drawn) (as salt: hydrochloride) | 170 °C (dec.)
Nc1cccc(-c2ccc(CCNC3CC4CCC(C3)N4Cc3ccc(F)cc3)cc2)n1 (stereo not drawn) (as salt: hydrochloride) | 190 °C (dec.)
Nc1cccc(-c2ccc(CCNC3CC4CCC(C3)N4Cc3ccc(Cl)cc3)cc2)n1 (stereo not drawn) (as salt: hydrochloride) | 198 °C (dec.)
Nc1cccc(-c2ccc(CCN3C4CCC3CC(NC(=O)c3ccccc3)C4)cc2)n1 (stereo not drawn) (as salt: hydrochloride) | 211 °C (dec.)
Nc1cccc(-c2ccc(CCN3C4CCC3CC(NC(=O)Cc3ccc(F)cc3)C4)cc2)n1 (stereo not drawn) (as salt: hydrochloride) | 160 °C (dec.)
Nc1cccc(-c2ccc(CCNC3CC4COCC(C3)N4)cc2)n1 (stereo not drawn) (as salt: hydrochloride) [104] | 100 °C (dec.)
Nc1cccc(-c2ccc(CCNC3CC4COCC(C3)N4)cc2)n1 (stereo not drawn) (as salt: hydrochloride) [107] | 170 °C (dec.)

More lines, now with the values ahead:

melting point | Structure (SMILES)
320 to 322 °C | Nc1cccc(-c2ccc(CCNC3CCc4ccccc4C3)cc2)n1 (stereo not drawn) (as salt: hydrochloride) [Example 18, 6-{4-[2-(1,2,3,4-Tetrahydro-naphthalen-2-ylamino)-ethyl]-phenyl}-pyridin-2-ylamine]
100 °C (dec.) | Nc1cccc(-c2ccc(CCN3CCC(c4ccccc4)C3)cc2)n1 (stereo not drawn) (as salt: hydrochloride) [Example 26, 6-{4-[2-(3-Phenyl-pyrrolidin-1-yl)-ethyl]-phenyl}-pyridin-2-ylamine]
110 °C (dec.) | Nc1cccc(-c2ccc(CCN3Cc4ccccc4CC3C(=O)O)cc2)n1 (stereo not drawn) (as salt: hydrochloride) [Example 28, 2-{2-[4-(6-Amino-pyridin-2-yl)-phenyl]ethyl}-1,2,3,4-tetrahydro-isoquinoline-3-carboxylic acid]
212 to 215 °C | Nc1cccc(-c2ccc(CCNCCc3ccccc3)cc2)n1 (as salt: hydrochloride) [Example 35, 6-[4-(2-Phenethylamino-ethyl)-phenyl]-pyridin-2-ylamine]
258 to 264 °C | Nc1cccc(-c2ccc(CCN3CCN(CCCc4ccccc4)CC3)cc2)n1 (as salt: hydrochloride) [Example 40, 6-(4-{2-[4-(3-Phenyl-propyl)-piperazin-1-yl]-ethyl}-phenyl)-pyridin-2-ylamine]
190 °C (dec.) | Nc1cccc(-c2ccc(CCN3CCC4(CC3)NC(=O)N(Cc3ccccc3)C4=O)cc2)n1 (as salt: hydrochloride) [Example 43, 8-{2-[4-(6-Amino-pyridin-2-yl)-phenyl]-ethyl}-3-benzyl-1,3,8-triaza-spiro[4.5]decane-2,4-dione]
165 °C (dec.) | Nc1cccc(-c2ccc(CCN3CC4C(C3)C4NCCc3ccccc3)cc2)n1 (stereo not drawn) (as salt: hydrochloride) [Example 46, (3-{2-[4-(6-Amino-pyridin-2-yl)-phenyl]-ethyl}-3-aza-bicyclo[3.1.0]hex-6-yl)-phenethyl-amine]
252 to 256 °C | CC(Cc1ccccc1)N1CCN(CCc2ccc(-c3cccc(N)n3)cc2)CC1 (stereo not drawn) (as salt: hydrochloride) [Example 54, 6-(4-{2-[4-(1-Methyl-2-phenyl-ethyl)-piperazin-1-yl]-ethyl}-phenyl)-pyridin-2-ylamine]
> 220 °C | Nc1cccc(-c2ccc(CCN3CCN(C4CCc5ccccc5C4)CC3)cc2)n1 (stereo not drawn) (as salt: hydrochloride) [Example 55, 6-(4-{2-[4-(1,2,3,4-Tetrahydro-naphthalen-2-yl)-piperazin-1-yl]-ethyl}-phenyl)-pyridin-2-ylamine]
176 to 180 °C | Nc1cccc(-c2ccc(CCN3CCC4(CC3)NC(=O)N(CCc3ccccc3)C4=O)cc2)n1 (as salt: hydrochloride) [Example 57, 8-{2-[4-(6-Amino-pyridin-2-yl)-phenyl]-ethyl}-3-phenethyl-1,3,8-triaza-spiro[4.5]decane-2,4-dione]
> 240 °C (dec.) | Nc1cccc(-c2ccc(CCN3CCC(N)(C(=O)NCc4ccccc4)CC3)cc2)n1 (as salt: hydrochloride) [Example 59, 4-Amino-1{-2-[4-(6-amino-pyridin-2-yl)-phenyl]-ethyl}-piperidine-4-carboxylic acid benzylamide]
230 °C (dec.) | Nc1cccc(-c2ccc(CCN3CCN(C(=O)C(N)Cc4ccccc4)CC3)cc2)n1 (stereo not drawn) (as salt: hydrochloride) [Example 61, 2-Amino-1-(4-{2-[4-(6-amino-pyridin-2-yl)-phenyl]-ethyl}-piperazin-1-yl)-3-phenyl-propan-1-one]
170 °C (dec.) | Nc1cccc(-c2ccc(CCN3CCC(NC(=O)Cc4ccc(F)cc4)CC3)cc2)n1 (as salt: hydrochloride) [Example 65, N-(1-{2-[4-(6-Amino-pyridin-2-yl)-phenyl]-ethyl}-piperidin-4-yl)-2-(4-fluoro-phenyl)-acetamide]
130 °C (dec.) | Nc1cccc(-c2ccc(CCN3CCC(NC(=O)Nc4ccccc4)C3)cc2)n1 (stereo not drawn) (as salt: hydrochloride) [Example 72, 1-(1-{2-[4-(6-Amino-pyridin-2-yl)-phenyl]-ethyl}-pyrrolidin-3-yl)-3-phenyl-urea]
90 °C (dec.) | Nc1cccc(-c2ccc(CCN3CCC(NC(=O)NCc4ccccc4)C3)cc2)n1 (stereo not drawn) (as salt: hydrochloride) [Example 73, 1-(1-{2-[4-(6-Amino-pyridin-2yl)-phenyl]-ethyl}-pyrrolidin-3-yl)-3-benzyl-urea]
120 °C (dec.) | Nc1cccc(-c2ccc(CCN3CCC(NC(=O)NC4CCCCC4)C3)cc2)n1 (stereo not drawn) (as salt: hydrochloride) [Example 74, 1-(1-{2-[4-(6-Amino-pyridin-2-yl)-phenyl]-ethyl}-pyrrolidin-3-yl)-3-cyclohexyl-urea]
215 to 219 °C (dec.) | Nc1cccc(-c2ccc(CCN3CCC(N)(C(=O)NCCc4ccccc4)CC3)cc2)n1 (as salt: hydrochloride) [Example 79, 4-Amino-1-{2-[4-(6-amino-pyridin-2-yl)-phenyl]-ethyl}-piperidine-4-carboxylic acid phenethyl-amide]
130 °C (dec.) | Nc1cccc(-c2ccc(CCNC3CCN(C(=O)Nc4ccccc4)C3)cc2)n1 (stereo not drawn) (as salt: hydrochloride) [Example 80, 3-{2-[4-(6-Amino-pyridin-2-yl)-phenyl]-ethylamino}-pyrrolidine-1-carboxylic acid phenylamide]
190 °C (dec.) | Nc1cccc(-c2ccc(CCNC3C4CCCC3CN(Cc3ccccc3)C4)cc2)n1 (stereo not drawn) (as salt: hydrochloride) [Example 84, {2-[4-(6-Amino-pyridin-2-yl)-phenyl]-ethyl}-(3-benzyl-3-aza-bicyclo[3.3.1]non-9-yl)-amine]
150 °C (dec.) | Nc1cccc(-c2ccc(CCN3CCCC(N)C3)cc2)n1 (stereo not drawn) (as salt: hydrochloride) [Example 86, 6-{4-[2-(3-Amino-piperidin-1-yl)-ethyl]-phenyl}-pyridin-2-ylamine]
170 °C (dec.) | Nc1cccc(-c2ccc(CCN3CCN(C(c4ccccc4)c4ccccc4)CC3)cc2)n1 (as salt: hydrochloride) [Example 89, 6-{4-[2-(4-Benzhydryl-piperazin-1-yl)-ethyl]-phenyl}-pyridin-2-ylamine]
175 °C (dec.) | Nc1cccc(-c2ccc(CCN3CCC(C(c4ccccc4)c4ccccc4)CC3)cc2)n1 (as salt: hydrochloride) [Example 90, 6-{4-[2-(4-Benzhydryl-piperidin-1-yl)-ethyl]-phenyl}-pyridin-2-ylamine]
235 °C (dec.) | Nc1cccc(-c2ccc(CCN3CCN(CC(O)c4ccccc4)CC3)cc2)n1 (stereo not drawn) (as salt: hydrochloride) [Example 103, 2-(4-{2-[4-(6-Amino-pyridin-2-yl)-phenyl]-ethyl}-piperazin-1-yl)-1-phenyl-ethanol]
170 °C (dec.) | CN1CCN(CCc2ccc(-c3cccc(N)n3)cc2)CC1 (as salt: hydrochloride) [Example 109, 6-{4-[2-(4-Methyl-piperazin-1-yl)-ethyl]-phenyl}-pyridin-2-ylamine]
200 to 220 °C (dec.) | Nc1cccc(-c2ccc(CCNC34CC5CC(CC(C5)C3)C4)cc2)n1 (as salt: hydrochloride) [Example 115, 6-{4-[2-(Adamantan-1-ylamino)-ethyl]-phenyl}-pyridin-2-ylamine]
